From ChEMBL document CHEMBL5465560, “Selectivity Literature for EUbOPEN Chemogenomic Library” (2024)
pIC50: −log10 of the molar value. Each block holds one molecule with its values, some of them ahead of it.

How the values were obtained:
[1] = molecular target: T1, Muscle, skeletal receptor tyrosine-protein kinase (Homo sapiens) (UniProt O15146); experiment: Selectivity interaction (Kinase panel (Z-LYTE Assay)) EUB0001632a MUSK; conditions: at 10 µM
T1 sequence (whole entry): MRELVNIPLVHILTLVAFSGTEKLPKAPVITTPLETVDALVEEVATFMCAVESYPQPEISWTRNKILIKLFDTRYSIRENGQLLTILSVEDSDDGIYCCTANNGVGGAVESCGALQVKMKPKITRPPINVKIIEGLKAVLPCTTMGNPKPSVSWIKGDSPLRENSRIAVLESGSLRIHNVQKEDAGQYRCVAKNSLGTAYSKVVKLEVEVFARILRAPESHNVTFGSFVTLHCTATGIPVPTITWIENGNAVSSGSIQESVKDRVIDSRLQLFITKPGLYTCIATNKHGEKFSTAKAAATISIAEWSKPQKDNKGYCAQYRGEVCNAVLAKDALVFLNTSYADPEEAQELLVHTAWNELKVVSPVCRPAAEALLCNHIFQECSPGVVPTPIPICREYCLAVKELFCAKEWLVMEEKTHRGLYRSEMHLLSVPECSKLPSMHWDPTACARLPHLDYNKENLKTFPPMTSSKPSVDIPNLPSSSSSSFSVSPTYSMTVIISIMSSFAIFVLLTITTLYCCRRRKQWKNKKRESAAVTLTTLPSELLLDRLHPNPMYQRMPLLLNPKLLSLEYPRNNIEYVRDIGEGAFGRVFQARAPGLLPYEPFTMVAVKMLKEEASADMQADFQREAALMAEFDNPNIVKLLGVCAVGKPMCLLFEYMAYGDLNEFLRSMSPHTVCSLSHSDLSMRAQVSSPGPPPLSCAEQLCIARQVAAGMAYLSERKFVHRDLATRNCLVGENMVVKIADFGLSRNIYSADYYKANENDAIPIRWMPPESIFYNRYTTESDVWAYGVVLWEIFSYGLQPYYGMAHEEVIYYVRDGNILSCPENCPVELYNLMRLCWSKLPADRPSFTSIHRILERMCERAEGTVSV

[2] = molecular target: Beta-2 adrenergic receptor (Homo sapiens, UniProt P07550); experiment: Selectivity interaction (Eurofins CEREP Diversity Profile (receptors and ion channels)) EUB0000279b ADRB2; conditions: at 10 µM
Sequence of Beta-2 adrenergic receptor (P07550 whole entry, looked up, canonical isoform): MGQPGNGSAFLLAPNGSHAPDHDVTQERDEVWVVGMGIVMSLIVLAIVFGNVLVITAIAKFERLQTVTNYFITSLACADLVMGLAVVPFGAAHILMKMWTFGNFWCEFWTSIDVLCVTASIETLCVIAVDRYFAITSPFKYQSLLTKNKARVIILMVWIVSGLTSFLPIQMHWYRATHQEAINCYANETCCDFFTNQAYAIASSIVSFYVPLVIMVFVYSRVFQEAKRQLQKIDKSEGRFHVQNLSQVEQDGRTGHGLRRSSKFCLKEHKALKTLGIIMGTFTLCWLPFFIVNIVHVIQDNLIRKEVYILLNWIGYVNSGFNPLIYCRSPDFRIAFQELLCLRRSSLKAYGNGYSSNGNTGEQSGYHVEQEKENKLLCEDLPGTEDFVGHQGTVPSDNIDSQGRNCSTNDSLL

[3] = test system: Phosphatidylinositol 4,5-bisphosphate 3-kinase catalytic subunit alpha isoform (Homo sapiens), P42336 [I800L]; conditions: at 10 µM
Sequence of Phosphatidylinositol 4,5-bisphosphate 3-kinase catalytic subunit alpha isoform (Homo sapiens), P42336 [I800L] (P42336 whole entry I800L, canonical isoform): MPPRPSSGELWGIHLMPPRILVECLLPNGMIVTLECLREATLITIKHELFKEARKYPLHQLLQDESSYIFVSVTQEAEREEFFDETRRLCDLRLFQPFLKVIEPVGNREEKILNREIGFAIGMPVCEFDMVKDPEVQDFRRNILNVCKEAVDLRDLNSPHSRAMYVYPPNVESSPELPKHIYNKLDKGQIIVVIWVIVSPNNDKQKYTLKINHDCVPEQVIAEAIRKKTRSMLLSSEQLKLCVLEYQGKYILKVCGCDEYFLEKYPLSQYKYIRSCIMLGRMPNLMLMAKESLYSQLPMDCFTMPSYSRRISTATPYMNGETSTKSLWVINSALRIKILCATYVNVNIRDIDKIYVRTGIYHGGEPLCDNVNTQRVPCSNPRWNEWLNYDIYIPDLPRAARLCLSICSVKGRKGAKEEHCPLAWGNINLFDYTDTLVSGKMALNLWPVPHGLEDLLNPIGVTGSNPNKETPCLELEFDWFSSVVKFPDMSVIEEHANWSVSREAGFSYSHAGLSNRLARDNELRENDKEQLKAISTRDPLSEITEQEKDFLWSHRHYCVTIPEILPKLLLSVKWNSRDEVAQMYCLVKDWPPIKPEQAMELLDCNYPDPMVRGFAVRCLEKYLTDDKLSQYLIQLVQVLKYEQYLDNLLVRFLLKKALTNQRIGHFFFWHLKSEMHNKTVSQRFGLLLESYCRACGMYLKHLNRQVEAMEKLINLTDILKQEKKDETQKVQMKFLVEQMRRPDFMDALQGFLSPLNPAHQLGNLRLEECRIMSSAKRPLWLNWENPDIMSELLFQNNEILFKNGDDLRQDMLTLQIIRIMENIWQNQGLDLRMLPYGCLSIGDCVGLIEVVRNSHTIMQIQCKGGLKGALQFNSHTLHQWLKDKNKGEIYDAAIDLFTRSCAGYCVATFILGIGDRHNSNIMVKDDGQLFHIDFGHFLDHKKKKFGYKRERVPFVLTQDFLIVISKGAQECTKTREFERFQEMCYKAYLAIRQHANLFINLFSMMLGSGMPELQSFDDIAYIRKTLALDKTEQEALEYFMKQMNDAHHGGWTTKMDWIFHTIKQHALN

[4] = molecular target: T2, Phosphatidylinositol 5-phosphate 4-kinase type-2 beta (Homo sapiens) (UniProt P78356); experiment: Selectivity interaction (KinomeScan (DiscoverX)) EUB0000607a PIP4K2B; conditions: at 10 µM
T2 sequence (whole entry): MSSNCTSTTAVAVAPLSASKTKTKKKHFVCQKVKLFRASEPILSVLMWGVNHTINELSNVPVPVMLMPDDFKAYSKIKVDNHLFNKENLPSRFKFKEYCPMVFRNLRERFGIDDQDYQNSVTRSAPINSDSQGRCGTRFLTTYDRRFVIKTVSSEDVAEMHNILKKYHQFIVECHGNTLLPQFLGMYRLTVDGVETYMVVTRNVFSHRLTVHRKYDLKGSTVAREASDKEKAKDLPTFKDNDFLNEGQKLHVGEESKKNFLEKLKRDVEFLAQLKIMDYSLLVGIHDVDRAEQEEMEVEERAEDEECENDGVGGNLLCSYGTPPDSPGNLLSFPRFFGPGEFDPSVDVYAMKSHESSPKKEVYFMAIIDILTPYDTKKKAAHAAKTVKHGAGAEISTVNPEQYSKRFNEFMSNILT

[5] = molecular target: CDK7/Cyclin H/MNAT1 (Homo sapiens) (UniProt P51946+P50613+P51948); experiment: Selectivity interaction (ProQinase) EUB0000171b CDK7; type: protein-complex assay
[6] = molecular target: Interferon-induced, double-stranded RNA-activated protein kinase (Homo sapiens) (UniProt P19525); experiment: Selectivity interaction (KinomeScan (DiscoverX)) EUB0000595a EIF2AK2; conditions: at 10 µM
[7] = molecular target: Serine/threonine-protein kinase WNK1 (Homo sapiens) (UniProt Q9H4A3); experiment: Selectivity interaction (KinomeScan (DiscoverX)) EUB0001049a WNK1; conditions: at 1 µM
[8] = molecular target: Mitogen-activated protein kinase 1 (Homo sapiens, UniProt P28482)
Sequence of Mitogen-activated protein kinase 1 (P28482 whole entry): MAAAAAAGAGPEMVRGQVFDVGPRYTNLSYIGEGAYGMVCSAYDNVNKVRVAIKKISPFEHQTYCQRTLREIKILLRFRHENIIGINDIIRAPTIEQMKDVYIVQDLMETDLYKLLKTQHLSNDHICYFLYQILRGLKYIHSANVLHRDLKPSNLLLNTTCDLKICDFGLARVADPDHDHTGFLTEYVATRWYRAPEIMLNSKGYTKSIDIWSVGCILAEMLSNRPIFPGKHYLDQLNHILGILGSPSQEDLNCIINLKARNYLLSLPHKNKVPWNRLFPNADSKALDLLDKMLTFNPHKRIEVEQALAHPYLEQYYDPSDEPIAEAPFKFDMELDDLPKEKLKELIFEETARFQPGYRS

[9] = molecular target: T3, Histone-arginine methyltransferase CARM1 (Homo sapiens) (UniProt Q86X55); conditions: KMS-12-PE, at 3 µM
T3 sequence (whole entry): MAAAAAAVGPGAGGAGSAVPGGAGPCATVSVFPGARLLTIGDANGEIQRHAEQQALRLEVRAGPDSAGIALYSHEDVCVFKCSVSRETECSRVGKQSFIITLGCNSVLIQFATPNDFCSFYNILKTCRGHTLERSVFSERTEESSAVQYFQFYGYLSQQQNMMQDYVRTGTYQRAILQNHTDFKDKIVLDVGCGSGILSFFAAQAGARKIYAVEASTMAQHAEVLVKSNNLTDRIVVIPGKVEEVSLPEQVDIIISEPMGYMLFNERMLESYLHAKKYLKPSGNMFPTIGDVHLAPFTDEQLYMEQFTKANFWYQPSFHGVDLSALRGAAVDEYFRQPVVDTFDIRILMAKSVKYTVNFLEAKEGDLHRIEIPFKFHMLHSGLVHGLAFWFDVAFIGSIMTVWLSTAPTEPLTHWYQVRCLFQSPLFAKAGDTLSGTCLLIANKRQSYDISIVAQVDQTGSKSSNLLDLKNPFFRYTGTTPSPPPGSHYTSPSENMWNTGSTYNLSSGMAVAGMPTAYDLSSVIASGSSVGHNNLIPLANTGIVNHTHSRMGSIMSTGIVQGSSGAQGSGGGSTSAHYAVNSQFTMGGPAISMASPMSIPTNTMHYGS

[10] = molecular target: Phosphatidylinositol 4-phosphate 3-kinase C2 domain-containing subunit beta (Homo sapiens) (UniProt O00750); experiment: Selectivity interaction (KinomeScan (DiscoverX)) EUB0000092b PIK3C2B; conditions: at 10 µM
Sequence of Phosphatidylinositol 4-phosphate 3-kinase C2 domain-containing subunit beta (Homo sapiens) (O00750 whole entry, the tested form may be a part): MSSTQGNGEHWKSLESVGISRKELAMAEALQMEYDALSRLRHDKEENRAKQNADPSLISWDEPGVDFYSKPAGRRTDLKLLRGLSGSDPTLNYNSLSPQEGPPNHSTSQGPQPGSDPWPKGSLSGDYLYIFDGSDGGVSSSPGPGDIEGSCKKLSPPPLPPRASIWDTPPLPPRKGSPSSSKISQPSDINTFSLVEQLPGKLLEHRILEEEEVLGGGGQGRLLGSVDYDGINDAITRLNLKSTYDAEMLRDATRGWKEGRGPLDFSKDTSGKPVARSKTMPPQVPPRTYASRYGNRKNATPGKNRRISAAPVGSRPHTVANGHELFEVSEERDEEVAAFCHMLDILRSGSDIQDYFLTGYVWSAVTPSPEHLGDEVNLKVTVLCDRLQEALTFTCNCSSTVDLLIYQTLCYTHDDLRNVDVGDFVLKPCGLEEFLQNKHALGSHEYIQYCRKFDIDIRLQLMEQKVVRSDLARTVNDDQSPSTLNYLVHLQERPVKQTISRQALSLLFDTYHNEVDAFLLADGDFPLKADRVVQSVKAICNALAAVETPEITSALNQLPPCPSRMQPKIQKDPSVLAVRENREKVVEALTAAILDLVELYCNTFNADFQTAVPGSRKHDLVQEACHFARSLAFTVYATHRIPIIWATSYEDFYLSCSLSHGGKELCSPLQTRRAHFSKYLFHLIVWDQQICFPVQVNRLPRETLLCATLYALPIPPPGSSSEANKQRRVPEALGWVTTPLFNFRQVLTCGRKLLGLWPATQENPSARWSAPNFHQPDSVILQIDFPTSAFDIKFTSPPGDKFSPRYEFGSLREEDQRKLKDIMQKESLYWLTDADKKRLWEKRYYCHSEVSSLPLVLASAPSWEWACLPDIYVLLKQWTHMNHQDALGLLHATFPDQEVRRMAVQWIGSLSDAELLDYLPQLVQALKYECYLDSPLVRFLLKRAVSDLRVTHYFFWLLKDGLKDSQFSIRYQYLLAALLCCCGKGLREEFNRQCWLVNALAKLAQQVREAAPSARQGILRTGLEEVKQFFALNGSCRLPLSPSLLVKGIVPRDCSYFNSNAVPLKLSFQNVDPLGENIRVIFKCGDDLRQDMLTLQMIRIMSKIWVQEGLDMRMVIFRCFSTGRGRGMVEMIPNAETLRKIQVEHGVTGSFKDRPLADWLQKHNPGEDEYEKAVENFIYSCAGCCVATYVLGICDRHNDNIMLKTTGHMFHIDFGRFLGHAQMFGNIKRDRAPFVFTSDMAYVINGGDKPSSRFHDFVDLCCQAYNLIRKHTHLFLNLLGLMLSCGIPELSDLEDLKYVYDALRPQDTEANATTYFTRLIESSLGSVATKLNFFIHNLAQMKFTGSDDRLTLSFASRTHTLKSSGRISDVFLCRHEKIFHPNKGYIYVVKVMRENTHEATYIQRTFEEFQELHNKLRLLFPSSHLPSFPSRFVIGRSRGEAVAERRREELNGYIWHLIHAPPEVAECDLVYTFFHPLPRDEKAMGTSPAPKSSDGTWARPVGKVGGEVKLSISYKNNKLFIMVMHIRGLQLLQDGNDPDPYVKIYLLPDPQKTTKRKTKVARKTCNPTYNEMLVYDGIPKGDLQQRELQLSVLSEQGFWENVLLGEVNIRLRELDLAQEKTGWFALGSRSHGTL

[11] = molecular target: Dual specificity tyrosine-phosphorylation-regulated kinase 1B (Homo sapiens, UniProt Q9Y463); experiment: Selectivity interaction (KinomeScan (DiscoverX)) EUB0000092b DYRK1B; conditions: at 10 µM
Sequence of Dual specificity tyrosine-phosphorylation-regulated kinase 1B (Q9Y463 whole entry, looked up): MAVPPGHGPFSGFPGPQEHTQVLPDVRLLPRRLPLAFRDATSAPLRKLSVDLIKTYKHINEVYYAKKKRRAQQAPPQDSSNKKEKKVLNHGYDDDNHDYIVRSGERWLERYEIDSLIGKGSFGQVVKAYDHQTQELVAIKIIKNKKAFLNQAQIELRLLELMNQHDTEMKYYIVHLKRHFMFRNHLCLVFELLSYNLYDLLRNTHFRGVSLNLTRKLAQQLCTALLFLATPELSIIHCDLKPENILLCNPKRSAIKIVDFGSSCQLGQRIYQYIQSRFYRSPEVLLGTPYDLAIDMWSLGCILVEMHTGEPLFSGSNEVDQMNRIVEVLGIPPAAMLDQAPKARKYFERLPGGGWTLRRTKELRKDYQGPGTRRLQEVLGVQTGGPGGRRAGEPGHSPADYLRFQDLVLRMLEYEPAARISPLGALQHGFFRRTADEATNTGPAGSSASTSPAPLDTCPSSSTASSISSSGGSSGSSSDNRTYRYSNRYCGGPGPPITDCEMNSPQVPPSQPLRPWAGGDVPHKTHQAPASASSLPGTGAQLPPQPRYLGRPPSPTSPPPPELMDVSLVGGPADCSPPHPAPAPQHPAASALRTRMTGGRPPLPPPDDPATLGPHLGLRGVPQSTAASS

[12] = molecular target: Serine/threonine-protein kinase 10 (Homo sapiens) (UniProt O94804); experiment: Selectivity interaction (KinomeScan (DiscoverX)) EUB0000618a STK10; conditions: at 10 µM
Sequence of Serine/threonine-protein kinase 10 (Homo sapiens) (O94804 whole entry, looked up): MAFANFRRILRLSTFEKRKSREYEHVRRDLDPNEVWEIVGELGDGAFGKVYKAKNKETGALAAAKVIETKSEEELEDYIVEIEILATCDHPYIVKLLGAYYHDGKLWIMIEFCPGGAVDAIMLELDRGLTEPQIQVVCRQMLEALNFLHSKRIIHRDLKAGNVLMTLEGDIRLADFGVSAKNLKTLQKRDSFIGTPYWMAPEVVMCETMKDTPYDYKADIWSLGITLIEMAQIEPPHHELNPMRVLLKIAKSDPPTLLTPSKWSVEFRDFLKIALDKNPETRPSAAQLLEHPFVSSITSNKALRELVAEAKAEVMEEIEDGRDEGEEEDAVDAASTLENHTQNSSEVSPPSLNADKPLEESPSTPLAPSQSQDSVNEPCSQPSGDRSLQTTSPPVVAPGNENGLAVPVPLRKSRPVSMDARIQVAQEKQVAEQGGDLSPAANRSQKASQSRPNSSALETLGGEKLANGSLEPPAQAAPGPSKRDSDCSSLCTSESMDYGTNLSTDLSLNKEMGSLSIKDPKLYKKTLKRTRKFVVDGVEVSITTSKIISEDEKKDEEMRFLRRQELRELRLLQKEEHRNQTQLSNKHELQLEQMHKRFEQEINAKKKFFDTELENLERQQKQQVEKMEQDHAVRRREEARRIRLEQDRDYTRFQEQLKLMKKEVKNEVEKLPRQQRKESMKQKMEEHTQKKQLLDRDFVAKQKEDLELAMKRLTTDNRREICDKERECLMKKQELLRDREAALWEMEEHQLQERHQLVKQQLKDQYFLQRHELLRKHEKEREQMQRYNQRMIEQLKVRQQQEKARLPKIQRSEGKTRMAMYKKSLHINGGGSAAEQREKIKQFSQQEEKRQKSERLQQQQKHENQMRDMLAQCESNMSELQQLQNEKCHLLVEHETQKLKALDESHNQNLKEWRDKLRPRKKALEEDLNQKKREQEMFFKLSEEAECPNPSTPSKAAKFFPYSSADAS

SMILES: CNC(=O)Nc1ccc(-c2nc(N3CC4CCC(C3)O4)c3cnn(C4CCC5(CC4)OCCO5)c3n2)cc1
% of control [3]: 5% | % of control [4]: 100%

SMILES: COCC(=O)NC/C=C/c1ccc2ncnc(Nc3ccc(Oc4ccc(C)nc4)c(C)c3)c2c1 [CP-724714]
% of control [6]: 99%

SMILES: COc1cc(Nc2nc(C)cc(-c3cnn4nc(OC)ccc34)n2)cc(C(F)(F)F)c1
% of control [7]: 66%

SMILES: CCC(=O)N1CCN(c2ccc(-n3c(=O)ccc4cnc5ccc(-c6cnc7ccccc7c6)cc5c43)cc2C(F)(F)F)CC1
% of control [10]: 25% | % of control [11]: 87%

SMILES: O[C@H]1CC[C@H](Nc2ncc3nc(Nc4c(F)cc(F)cc4F)n([C@H]4CCOC4)c3n2)CC1
% of control [12]: 97%

Next, values leading:

% of control [1]: 12.7%
SMILES: Cn1cc(-n2cnc3c(NCc4nc5cc(Cl)c(Cl)cc5[nH]4)nc(N4CCOCC4)nc32)cn1

% of control [2]: 99%
SMILES: CC(=O)c1cc(-c2ccccc2OCC2CC2)c2ncccn12

% of control ([5]; at 1 µM): 89% | % of control ([5]; at 5 µM): 86%
SMILES: C=CC(=O)Nc1cccc(C(=O)Nc2ccc(Nc3cc(-c4[nH]c(SC)nc4C)ccn3)cc2)c1

pIC50 [8]: < 5.00
SMILES: CCc1cccc(CC)c1NC(=O)c1nn(C)c2c1CCc1cnc(Nc3ccc(C(=O)NC4CCN(C)CC4)cc3OC(F)(F)F)nc1-2

% of growth rate [9]: -4.4%
SMILES: CNCCN1CCC(c2cc(CN(C)C(=O)c3cccc(Oc4ccccc4)c3)ccn2)CC1
